According to patent publication EP3147364A1, “ANTIVIRAL AGENTS COMPRISING AN OLIGONUCLEOTIDE-LIPID CONJUGATE FORMING G-QUADRUPLEX” (priority 2015, dated 2017):

Columns and labels:
[1] = Cytotoxicity (viability) assay in Huh7/Scr cells (CytoTox-Glo); type: cell-based; conditions: human
Luc-Jc1 virus = test: HCVcc infection: Luc-Jc1 virus on Huh7/Scr cells, Firefly luciferase
NL4.3-Ren [2] = test: Transfection experiment: pNL4.3-Ren viruses produced in 293T cells in presence of drug, quantified and tested for infectivity on SupT1 cells; type: cell-based, HIV-1; conditions: drug added to transfected 293T cells for 24h; supernatants on SupT1 cells (Fig. 7a)
NL4.3-Ren [3] = type: cell-based, HIV-1; conditions: text does not say which of assays A and B (Figs. 4 and 5)

In the case of Cc1nc(Nc2ncc(C(=O)Nc3c(C)cccc3Cl)s2)cc(N2CCN(CCO)CC2)n1 [Dasatinib], the CC50 at 72 h [1] is reported as 20.3 µM, the EC50 (Luc-Jc1 virus; Hepatitis C virus, Huh-7, 72 h) is reported as 1.47 µM and the SI (Luc-Jc1 virus; Selectivity Index from EC50 and CC50) is reported as 13.81.
With CC(C)CN(C[C@@H](O)[C@H](Cc1ccccc1)NC(=O)O[C@H]1CCOC1)S(=O)(=O)c1ccc(N)cc1 [APV, Amprenavir] the “inhibition of infection by viruses produced in presence of drug” value (NL4.3-Ren [2]) was “inhibition of infection is detected”.
For CCCC/C=C\C/C=C\CCCCCCCCCOCC(O)CO (centres unmarked) [3-[(10Z,13Z)-octadeca-10,13-dien-1-yloxy]propane-1,2-diol], the antiviral effect (NL4.3-Ren [3]) was “no effect”.
